One series has as its target T1, human ERβ (Homo sapiens, UniProt Q92731).
T1 construct: made in house; host or cells: E. coli (crude lysate)
The series can be described thus: Competition with [3H]-17β-estradiol for binding to ERβ. As to conditions: ligand binding domain of human ERβ in E. coli crude lysate, 2 nM [3H]-17β-estradiol, 5-15 hours at room temperature. The protocol:
Representative examples of the invention were evaluated for their ability to compete with 17β-estradiol for both ERα and ERβ. This test procedure provides the methodology for one to determine whether a particular compound binds to the estrogen receptor (and is therefore “estrogenic”) and whether there is selectivity for ERα or ERβ. […] 17β-estradiol is included as a standard reference for comparison. The procedure used is briefly described below. A crude lysate of E. coli expressing the estrogen receptor ligand binding domains (D, E, & F) of human ERα or ERβ was prepared. Both receptors and compounds were diluted in 1× Dulbecco's PBS (DPBS) supplemented with 1 mM EDTA. Using a high binding masked microtiter plate, 100 uL of receptor (1 uG/well) was combined with 2 nm [^3H]-17β-estradiol and various concentrations of compound. After between 5 and 15 hours at room temperature, the plates were washed with DPBS/1 mM EDTA and bound radioactivity determined by liquid scintillation counting. The IC50 is defined as the concentration of compound that decreases total 17β-estradiol binding by 50%.

Another series concerns the target T2, human ERα (Homo sapiens, UniProt P03372).
T2 construct: made in house; host or cells: E. coli (crude lysate)
T2 sequence (P03372 311-547 limits assumed): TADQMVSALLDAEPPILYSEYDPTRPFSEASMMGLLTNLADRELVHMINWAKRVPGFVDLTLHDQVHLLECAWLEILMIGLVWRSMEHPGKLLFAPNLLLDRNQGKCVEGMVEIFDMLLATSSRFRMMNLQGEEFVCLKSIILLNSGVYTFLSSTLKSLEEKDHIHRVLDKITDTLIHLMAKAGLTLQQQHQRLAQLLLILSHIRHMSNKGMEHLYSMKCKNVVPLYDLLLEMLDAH
Nature of the series: Competition with [3H]-17β-estradiol for binding to ERα. The following applies: ligand binding domain of human ERα in E. coli crude lysate, 2 nM [3H]-17β-estradiol, 5-15 hours at room temperature. The protocol: Representative examples of the invention were evaluated for their ability to compete with 17β-estradiol for both ERα and ERβ. This test procedure provides the methodology for one to determine whether a particular compound binds to the estrogen receptor (and is therefore “estrogenic”) and whether there is selectivity for ERα or ERβ. The values are shown in the Table infra and are reported as IC50s. 17β-estradiol is included as a standard reference for comparison. The procedure used is briefly described below. A crude lysate of E. coli expressing the estrogen receptor ligand binding domains (D, E, & F) of human ERα or ERβ was prepared. Both receptors and compounds were diluted in 1× Dulbecco's PBS (DPBS) supplemented with 1 mM EDTA. Using a high binding masked microtiter plate, 100 uL of receptor (1 uG/well) was combined with 2 nm [^3H]-17β-estradiol and various concentrations of compound. After between 5 and 15 hours at room temperature, the plates were washed with DPBS/1 mM EDTA and bound radioactivity determined by liquid scintillation counting. The IC50 is defined as the concentration of compound that decreases total 17β-estradiol binding by 50%.

The results in this text go back to patent US7671084B2 (Wyeth, priority 2004, dated 2010).

Counter-ions that a name gives are not always drawn. Like-named read-outs stand apart in the source and are kept apart here. Bounds are passed on as bounds.

T1 sequence (Q92731 264-498 limits assumed): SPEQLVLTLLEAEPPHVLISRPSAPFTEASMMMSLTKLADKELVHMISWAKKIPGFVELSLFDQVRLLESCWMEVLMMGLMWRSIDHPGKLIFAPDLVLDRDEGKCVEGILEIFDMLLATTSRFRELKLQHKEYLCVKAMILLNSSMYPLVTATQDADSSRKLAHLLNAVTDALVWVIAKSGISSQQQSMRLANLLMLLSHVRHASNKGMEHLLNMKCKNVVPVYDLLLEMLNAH

Usually melting point stands for the temperature of the solid-liquid transition. In the case of `Oc1ccc2c(c1)COc1c-2cc2ccc(O)cc2c1-c1ccncc1` (as salt: HCl) [Example 37, 7-(4-Pyridyl)-5H-dibenzo[c,g]chromene-3,9-diol], the melting point was greater than 250 °C.

Broadly, the IC50 is the concentration needed to halve the response being measured. On to `Oc1ccc2c(c1)COc1cc3cc(O)ccc3cc1-2` [Example 4, 5H-Dibenzo[c,g]chromene-3,9-diol], for which the melting point was 231 to 233 °C. The compound further had an IC50 at human ERβ of 7.9 nM. Also, at human ERα (read-out: ERα (nM) IC50), the IC50 is 63 nM.

Consider `Oc1ccc2c(c1)COc1ccc3ccc(O)cc3c1-2` [Example 5, 5H-Dibenzo[c,f]chromene-3,11-diol], for which the melting point lay within 199 to 201 °C.

As for `Oc1ccc2c(c1)COc1cc3c(Cl)c(O)ccc3cc1-2` [Example 6, 8-Chloro-5H-dibenzo[c,g]chromene-3,9-diol], the melting point lay in the range of 212 to 214 °C. On human ERβ, this compound came in with an IC50 of 0.53 nM. The IC50 on human ERα (read-out: ERα (nM) IC50) was determined as 21 nM.

As to `Oc1ccc2c(c1)COc1c-2cc2ccc(O)cc2c1Cl` [Example 12, 7-Chloro-5H-dibenzo[c,g]chromene-3,9-diol], the IC50 on human ERβ is 1.5 nM; on human ERα (read-out: ERα (nM) IC50) it was 15 nM.

Regarding `Oc1ccc2c(c1)COc1c-2cc2ccc(O)cc2c1Br` [Example 13, 7-Bromo-5H-dibenzo[c,g]chromene-3,9-diol], the results for the IC50 at human ERβ and at human ERα (read-out: ERα (nM) IC50) were 1.2 nM and 13 nM, respectively.

`N#Cc1c2c(cc3ccc(O)cc13)-c1ccc(O)cc1CO2` [Example 14, 3,9-Dihydroxy-5H-dibenzo[c,g]chromene-7-carbonitrile] yielded a melting point greater than 280 °C. Besides, the half-maximal inhibitory concentration (IC50) at human ERβ worked out at 2.7 nM. Further, the IC50 on human ERα (read-out: ERα (nM) IC50) turned out to be 32 nM.

On to `COc1c2c(cc3ccc(O)cc13)-c1ccc(O)cc1CO2` [Example 15, 7-Methoxy-5H-dibenzo[c,g]chromene-3,9-diol], for which the IC50 at human ERβ is 4.3 nM; at human ERα (read-out: ERα (nM) IC50) it was 169 nM.

As for `C=Cc1c2c(cc3ccc(O)cc13)-c1ccc(O)cc1CO2` [Example 16, 7-Vinyl-5H-dibenzo[c,g]chromene-3,9-diol], the IC50 amounted to 2 nM at human ERβ and 44 nM at human ERα (read-out: ERα (nM) IC50).

`COc1c2c(c(Br)c3ccc(O)cc13)-c1ccc(O)cc1CO2` [Example 19, 12-Bromo-7-methoxy-5H-dibenzo[c,g]chromene-3,9-diol]: the results for the IC50 on human ERβ and at human ERα (read-out: ERα (nM) IC50) were 3.3 nM and 12 nM, respectively.

As for `COc1c2c(c(Cl)c3ccc(O)cc13)-c1ccc(O)cc1CO2` [Example 20, 12-Chloro-7-methoxy-5H-dibenzo[c,g]chromene-3,9-diol], the IC50 at human ERβ was 1.4 nM; at human ERα (read-out: ERα (nM) IC50), 13 nM.

Compound `Cc1c2c(cc3ccc(O)cc13)-c1ccc(O)cc1CO2` [Example 21, 7-Methyl-5H-dibenzo[c,g]chromene-3,9-diol] registered a melting point of 224 to 226 °C. This compound also came in with a concentration for half-maximal inhibition (IC50) on human ERβ of 1 nM. Moreover, the IC50 at human ERα (read-out: ERα (nM) IC50) came out at 17 nM.

Compound `OCc1ccccc1-c1c2c(cc3ccc(O)cc13)-c1ccc(O)cc1CO2` [Example 22, 7-[2-(Hydroxymethyl)phenyl]-5H-dibenzo[c,g]chromene-3,9-diol] gave a melting point of 171 to 173 °C. For the same compound, the IC50 at human ERβ turned out to be 349 nM. Also, the IC50 at human ERα (read-out: ERα (nM) IC50) was found to be 531 nM.

`Oc1ccc2c(c1)COc1c-2cc2ccc(O)cc2c1-c1ccccc1` [Example 23, 7-Phenyl-5H-dibenzo[c,g]chromene-3,9-diol] yielded a melting point of 225 to 227 °C. At human ERβ, this compound displayed an IC50 of 4.1 nM. In addition, at human ERα (read-out: ERα (nM) IC50), the IC50 stood at 137 nM.

Consider `Cc1ccccc1-c1c2c(cc3ccc(O)cc13)-c1ccc(O)cc1CO2` [Example 24, 7-(2-Tolyl)-5H-dibenzo[c,g]chromene-3,9-diol], for which the melting point was 193 to 196 °C. Also, the concentration for half-maximal inhibition (IC50) on human ERβ amounted to 11 nM. Moreover, on human ERα (read-out: ERα (nM) IC50), the IC50 was 487 nM.

With `Cc1cccc(-c2c3c(cc4ccc(O)cc24)-c2ccc(O)cc2CO3)c1` [Example 25, 7-(3-Tolyl)-5H-dibenzo[c,g]chromene-3,9-diol], the melting point fell in the range of 219 to 222 °C. Further, the IC50 on human ERβ worked out at 4.2 nM. Further, the IC50 on human ERα (read-out: ERα (nM) IC50) amounted to 117 nM.

`Cc1ccc(-c2c3c(cc4ccc(O)cc24)-c2ccc(O)cc2CO3)cc1` [Example 26, 7-(4-Tolyl)-5H-dibenzo[c,g]chromene-3,9-diol]: the melting point lay in the range of 238 to 240 °C. This compound returned a half-maximal inhibitory concentration (IC50) on human ERβ of 4.1 nM. Further, the IC50 at human ERα (read-out: ERα (nM) IC50) was 137 nM.

As for `COc1ccc(-c2c3c(cc4ccc(O)cc24)-c2ccc(O)cc2CO3)cc1` [Example 27, 7-(4-Methoxyphenyl)-5H-dibenzo[c,g]chromene-3,9-diol], the melting point fell in the range of 200 to 203 °C. This compound came in with a half-maximal inhibitory concentration (IC50) on human ERβ of 9.8 nM. Moreover, at human ERα (read-out: ERα (nM) IC50), the IC50 turned out to be 702 nM.

`Oc1ccc2c(c1)COc1c-2cc2ccc(O)cc2c1-c1ccc(Cl)cc1` [Example 28, 7-(4-Chlorophenyl)-5H-dibenzo[c,g]chromene-3,9-diol] registered a melting point of 239 to 242 °C. Further, the half-inhibitory concentration (IC50) at human ERβ amounted to 9.3 nM. Further, the 50% inhibitory concentration (IC50) on human ERα (read-out: ERα (nM) IC50) was 320 nM.

Consider `Oc1ccc2c(c1)COc1c-2cc2ccc(O)cc2c1-c1ccc(F)cc1` [Example 29, 7-(4-Fluorophenyl)-5H-dibenzo[c,g]chromene-3,9-diol], for which the melting point fell in the range of 229 to 232 °C. Further, on human ERβ, the IC50 is 6.4 nM. Also, the IC50 at human ERα (read-out: ERα (nM) IC50) turned out to be 298 nM.

In turn, `Oc1ccc2c(c1)COc1c-2cc2ccc(O)cc2c1-c1cccs1` [Example 30, 7-Thien-2-yl-5H-dibenzo[c,g]chromene-3,9-diol] showed a melting point of 233 to 236 °C. On human ERβ, this compound registered an IC50 of 1.4 nM. The IC50 at human ERα (read-out: ERα (nM) IC50) stood at 75 nM.

`Oc1ccc2c(c1)COc1c-2cc2ccc(O)cc2c1-c1ccsc1` [Example 31, 7-Thien-3-yl-5H-dibenzo[c,g]chromene-3,9-diol] registered a melting point of 159 to 161 °C. Further, the IC50 on human ERβ turned out to be 4.1 nM. Also, the 50% inhibitory concentration (IC50) on human ERα (read-out: ERα (nM) IC50) was 152 nM.

Compound `Oc1ccc2c(c1)COc1c-2cc2ccc(O)cc2c1-c1cccc(F)c1` [Example 32, 7-(3-Fluorophenyl)-5H-dibenzo[c,g]chromene-3,9-diol] registered a melting point of 225 to 227 °C. This compound showed an IC50 on human ERβ of 3.3 nM. Further, on human ERα (read-out: ERα (nM) IC50), the IC50 amounted to 93 nM.

`Oc1ccc2c(c1)COc1c-2cc2ccc(O)cc2c1-c1cccc(Cl)c1` [Example 33, 7-(3-Chlorophenyl)-5H-dibenzo[c,g]chromene-3,9-diol] had a melting point of 243 to 246 °C. The IC50 on human ERβ came to 18 nM. The IC50 on human ERα (read-out: ERα (nM) IC50) was 63 nM.

Turning to `Oc1ccc2c(c1)COc1c-2cc2ccc(O)cc2c1-c1ccncc1` [Example 37, 7-(4-Pyridyl)-5H-dibenzo[c,g]chromene-3,9-diol], the IC50 was 3.05 nM on human ERβ and greater than 5000 nM at human ERα (read-out: ERα IC50 (cell prints uM)).

The compound `COc1ccncc1-c1c2c(cc3ccc(O)cc13)-c1ccc(O)cc1CO2` [Example 51, 7-(4-Methoxy-3-Pyridyl)-5H-dibenzo[c,g]chromene-3,9-diol] showed a melting point greater than 220 °C.

On to `COc1ccc(-c2c3c(cc4ccc(O)cc24)-c2ccc(O)cc2CO3)cn1` [Example 51], for which the IC50 on human ERβ was 22 nM; on human ERα (read-out: ERα (nM) IC50), 764 nM.

Regarding `Oc1ccc2c(c1)COc1c-2cc2ccc(O)cc2c1-c1ncccn1` [Example 52, 7-(Pyrimidyl)-5H-dibenzo[c,g]chromene-3,9-diol], the IC50 at human ERβ came to 60 nM; at human ERα (read-out: ERα (nM) IC50) it was 1600 nM.

As to `Oc1ccc2c(c1)COc1c-2cc2ccc(O)cc2c1-c1ccc(Cl)c(Cl)c1` [Example 55, 7-(3,4-Dichlorophenyl)-5H-dibenzo[c,g]chromene-3,9-diol], the melting point was in the range of 143 to 145 °C. Also, the IC50 at human ERβ is 835 nM.

As for `Oc1ccc2c(c1)COc1c-2cc2ccc(O)cc2c1-c1cccc2ccccc12` [Example 61, 7-(Naphthyl)-5H-dibenzo[c,g]chromene-3,9-diol], the IC50 at human ERα (read-out: ERα (nM) IC50) was 172 nM.

On to `Cc1cc(C)cc(-c2c3c(cc4ccc(O)cc24)-c2ccc(O)cc2CO3)c1` [Example 63, 7-(3,5-Dimethylphenyl)-5H-dibenzo[c,g]chromene-3,9-diol], for which the melting point fell in the range of 220 to 223 °C.
